# Results taken from patent US20210379077A1, “TOPOISOMERASE II CATALYTIC INHIBITOR COMPOUND THERAPEUTICS FOR CANCER TREATMENT, METHODS AND USES” (The University of British Columbia, priority 2018, published 2021).
# “Also recorded” adds a separate entry of the source.
# Assays:
# Topo IIα [1] = target: T1, Topo IIα (Homo sapiens, UniProt P11388); assay: Thermal shift assay in cells; assay type: binding; design: endogenous in cells; host or cells: K562; conditions: K562 cells, 20 μM
# Description: Whole cell lyses were collected and used to measure protein levels of TOP2α, TOP2β with β-Actin as a loading control; (b) K562 cells were treated with 0, 1, and 10 μM of Top60 for 24 hours. Protein lyses were collected from soluble nuclear extract, chromatin fraction or whole cell lysate. TOP2α and TOP2β protein levels were determined by immunoblotting with Lamin A/C, Histone H3 and β-Actin as loading controls; and (c) Etoposide-resistant K562 cell line was established by treating cells with 0.5 μM of Etoposide for 6 months. TOP2α, TOP2β, and β-actin protein levels were determined by immunoblotting. Etoposide-resistant K562 cells were treated with 0, 1, 10, 15 and 20 μM of Top60, Etoposide or ICRF187 for 48 hours. Cell proliferation rates were determined by MTS assays.
# Thermal shift and chromatin fraction assays—In the thermal shift assays, cells were treated with vehicle or compound #60 (Top60) for 1 hour, split into equal aliquots to be heated at 37 to 46 degrees in a PCR machine. Protein lyses were collected to perform immunoblotting assays with Topo II antibodies. In the chromatin fraction assays, cells were treated with vehicle or compound #60 (Top60). Both soluble and chromatin associated proteins were fractioned following the protocol described by Wysocka J et al.^18. Protein lyses were collected to perform immunoblotting assays with Topo II antibodies. […]
# K562 cells = assay: γH2AX Western blot (DNA damage in cells); assay type: cell-based; conditions: 10-20 μM, 4 hours, listed as Top60
# Description: Cytotoxicity was evaluated by measuring LDH levels from cell culture media; (b) K562 cells were treated with either vehicle or 10-20 μM of Top60, Etoposide and ICRF187 for 4 hours. Whole cell lyses were collected to measure γH2AX levels with vinculin as the loading control; (c) K562 cells were treated with 0, 1, 5, 10, 15 and 20 μM of Top60, 20 μM Etoposide or 20 uM ICRF187 for 48 hours. Cell proliferation rates were determined by MTS assays; and (d) K562 cells were treated with 20 μM of Top60, Etoposide or ICRF187 for 0, 24, 48 and 72 hours. Cell proliferation rates were measured by MTS assays. All results were collected from three independent experiments.
# Top60 is a catalytic inhibitor of Topo II To verify that our lead Compound 60(Top60), the formation of ds DNA breaks was assayed both in and outside of cells. To assess whether Top60 causes double stranded DNA breaks outside cells, supercoiled plasmid was incubated with and without Top60 in the presence of Topo II (FIG. 1d). […] Furthermore, H2AXγ protein expression was assessed by Western blot to determine if the lead compound could cause DNA damage in cells, and compared to Etoposide as a control (FIG. 3b). […] To determine if Top60 was capable of intercalating DNA, it was incubated with relaxed plasmid at increasing concentrations and compared with m-AMSA, a known intercalator. […]
# Hela cells = assay: BrdU incorporation assay; assay type: cell-based; conditions: 20 μM, 48 hours, listed as Top60
# Description: BrdU incorporation rates were determined by Millipore™ BrdU incorporation kit (CAT #2750). (b-c) Hela cells were treated with vehicle or 20 μM of Top60 for 48 hours. Cells were then stained with APC-BrdU and 7-AAD for 4 hours, and subjected to FACS assays to determine cell populations at Sub G0/G1, G0/G1, S, and G2/M phases. Results were collected from three independent experiments, (d-e) Hela cells were treated with either vehicle or 20 μM T60 for 48 hours. Cells were fixed and co-stained with DAPI and phalloidin, and examined by confocal microscopy. Fifty cells were chosen from five high power fields to analyze nuclei sizes by the Image J software. Representative bright field microscopic images were also shown. Scale bar=50 μm.
# BrDU incorporation and cell proliferation assays—Cell proliferation rates were measured by using the CellTitre™ 96 AqueousOne™ kit (Promega™) and bromodeoxyuridine (BrdU) assay kit (Millipore™) according to the manufacturer's protocol, with minor modifications as we have previously described by Li H. et al.^19
# Topo IIα [2] = target: T1, Topo IIα; assay: DNA relaxation assay with supercoiled pHOT plasmid; assay type: biochemical; design: purchased TopoGENE (TopoGEN) TG2000H; conditions: 0-50 μM, 37° C., 1 hour
# Description: DNA samples were separated by electrophoresis on 0.8% agarose gels and visualized by ethium bromide staining. The positions of K-DNA and decatenated (D) DNA products are marked by arrows. Experiments were repeated five times and the densitometry of the D bands were used to establish an inhibition curve to calculate IC50. (b) Supercoiled pHOT™ plasmid was incubated with human TOP2a in the presence of 50 μM Etopside, 50 uM ICRF193 or 0-50 μM of compound #60 (Top60) compound at 37° C. for 1 hour. DNA products were separated by electrophoresis on 1% agarose gels and visualized by ethium bromide staining. The positions of supercoiled (SC), nicked (N), and relaxed (R) DNA bands are marked by arrows. Experiments were repeated five times and the densitometiy of the SC bands were used to establish an inhibition curve to calculate IC50. (c) Supercoiled pHOT™ plasmid was incubated with Topoisomerase I prior to addition of either mAMSA or compound #60 (Top60) at concentrations of 0, 5, 10, 25 and 50 μM at 37° C. for 30 minutes. Reactions were stopped by 1% SDS at 37° C. for 15 minutes. DNA products were separated by electrophoresis on a 1% agarose gels and visualized by ethium bromide staining. […]
# T1 sequence (P11388 whole entry): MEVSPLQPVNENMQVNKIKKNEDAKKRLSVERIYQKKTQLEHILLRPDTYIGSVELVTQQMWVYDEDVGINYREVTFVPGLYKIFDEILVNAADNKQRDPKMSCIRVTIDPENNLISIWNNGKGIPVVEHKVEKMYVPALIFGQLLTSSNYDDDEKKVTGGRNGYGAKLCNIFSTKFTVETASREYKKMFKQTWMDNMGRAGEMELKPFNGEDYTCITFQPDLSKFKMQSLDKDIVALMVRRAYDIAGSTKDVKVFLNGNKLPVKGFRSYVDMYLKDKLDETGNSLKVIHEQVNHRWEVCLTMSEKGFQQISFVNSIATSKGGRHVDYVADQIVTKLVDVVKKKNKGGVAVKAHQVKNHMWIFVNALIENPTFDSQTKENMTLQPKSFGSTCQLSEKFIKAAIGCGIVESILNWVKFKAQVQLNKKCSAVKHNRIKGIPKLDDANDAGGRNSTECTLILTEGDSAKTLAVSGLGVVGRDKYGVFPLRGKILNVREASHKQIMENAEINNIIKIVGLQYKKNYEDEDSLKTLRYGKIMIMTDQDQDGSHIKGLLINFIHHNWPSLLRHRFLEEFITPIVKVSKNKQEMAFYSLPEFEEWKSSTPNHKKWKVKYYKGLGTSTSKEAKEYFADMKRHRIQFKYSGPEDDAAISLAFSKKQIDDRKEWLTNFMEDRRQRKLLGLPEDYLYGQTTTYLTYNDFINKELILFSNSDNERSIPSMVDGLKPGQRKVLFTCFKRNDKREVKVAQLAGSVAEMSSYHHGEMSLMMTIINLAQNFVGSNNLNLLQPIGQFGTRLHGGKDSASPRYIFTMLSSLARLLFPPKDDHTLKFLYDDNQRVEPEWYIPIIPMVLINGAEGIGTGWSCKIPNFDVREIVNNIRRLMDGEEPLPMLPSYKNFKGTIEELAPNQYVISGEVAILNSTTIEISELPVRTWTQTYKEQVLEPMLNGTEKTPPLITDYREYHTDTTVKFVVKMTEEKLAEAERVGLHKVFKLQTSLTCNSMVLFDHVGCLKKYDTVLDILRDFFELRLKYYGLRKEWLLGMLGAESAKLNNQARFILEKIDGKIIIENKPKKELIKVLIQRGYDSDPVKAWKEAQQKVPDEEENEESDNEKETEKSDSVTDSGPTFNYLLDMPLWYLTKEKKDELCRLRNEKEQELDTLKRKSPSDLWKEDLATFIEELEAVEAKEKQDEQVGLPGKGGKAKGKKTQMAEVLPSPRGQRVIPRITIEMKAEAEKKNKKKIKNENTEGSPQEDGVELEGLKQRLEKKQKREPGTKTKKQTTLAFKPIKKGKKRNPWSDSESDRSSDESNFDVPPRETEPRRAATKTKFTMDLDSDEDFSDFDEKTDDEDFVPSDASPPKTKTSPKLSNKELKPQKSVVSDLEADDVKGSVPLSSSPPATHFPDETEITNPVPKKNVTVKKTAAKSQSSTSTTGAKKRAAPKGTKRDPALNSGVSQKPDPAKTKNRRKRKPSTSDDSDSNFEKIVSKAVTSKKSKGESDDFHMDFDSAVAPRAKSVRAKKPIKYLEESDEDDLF
compound,measurement,setting,value
O=C(Nc1ccc(Nc2ccccc2)cc1)c1ccc[nH]c1=S [Compound 60],temperature up to which Topo IIα was stabilized,Topo IIα [1],up to 43 °C
same,DNA damage in cells by H2AXγ protein level,K562 cells,do not cause DNA damage
same,cellular replication (BrdU incorporation),Hela cells,Decreased cellular replication; also recorded: inhibits DNA synthesis at S phase
same,IC50 in the relaxation assay,Topo IIα [2],nanomolar
